Laboratory results reported in article PMC9878661, “Syntheses, Structural Characterization, and Cytotoxicity Assessment of Novel Mn(II) and Zn(II) Complexes of Aroyl-Hydrazone Schiff Base Ligand” (ACS Omega, 2023).

Biological target: T1, bovine serum albumin (BSA) (Bos taurus, UniProt P02769)
T1 construct: gene ALB
Assay: UV-vis absorption titration of BSA at […] nm (double reciprocal plot)
Format: binding
Settings: read-out: UV-vis absorption titration of BSA at 280 nm (double reciprocal plot) (converted)

T1 sequence (P02769 25-607): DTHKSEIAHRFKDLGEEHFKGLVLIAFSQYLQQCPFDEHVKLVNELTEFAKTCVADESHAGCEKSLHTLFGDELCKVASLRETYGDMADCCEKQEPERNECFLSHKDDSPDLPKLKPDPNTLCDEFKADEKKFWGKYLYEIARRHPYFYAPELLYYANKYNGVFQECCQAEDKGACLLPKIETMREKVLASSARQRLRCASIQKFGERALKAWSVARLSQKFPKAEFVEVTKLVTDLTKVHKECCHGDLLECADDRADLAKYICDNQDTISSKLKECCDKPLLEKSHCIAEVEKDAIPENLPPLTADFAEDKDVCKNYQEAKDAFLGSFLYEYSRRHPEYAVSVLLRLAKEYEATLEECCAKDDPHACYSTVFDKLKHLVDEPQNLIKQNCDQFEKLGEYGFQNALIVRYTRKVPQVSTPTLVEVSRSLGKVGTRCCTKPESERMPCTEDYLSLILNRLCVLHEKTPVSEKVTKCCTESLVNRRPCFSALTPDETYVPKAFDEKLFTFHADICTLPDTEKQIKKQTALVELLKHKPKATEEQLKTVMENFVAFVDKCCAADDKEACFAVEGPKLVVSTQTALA

Kd: 261 µM
SMILES: O=C(NN=Cc1c[nH]c2ccccc12)c1ccncc1 [L1, N′-[(E)-3-Indol-3-ylmethylene] isonicotinohydrazide]
